Values quoted from earlier work, collected in patent publication US9406119B2, “Estimating pharmacokinetic parameters in imaging” (INVICRO, LLC, priority 2010, dated 2016).

Experiments:
αvβ3 [1] = target: T1, αvβ3 (Homo sapiens, UniProt P05106+P06756); details: parameter obtained from the literature
αvβ3 [2] = target: T1, αvβ3; details: parameter obtained from the literature; remark: listed apart in the source
[3] = in vivo

T1 sequence (P06756 31-889 limits assumed): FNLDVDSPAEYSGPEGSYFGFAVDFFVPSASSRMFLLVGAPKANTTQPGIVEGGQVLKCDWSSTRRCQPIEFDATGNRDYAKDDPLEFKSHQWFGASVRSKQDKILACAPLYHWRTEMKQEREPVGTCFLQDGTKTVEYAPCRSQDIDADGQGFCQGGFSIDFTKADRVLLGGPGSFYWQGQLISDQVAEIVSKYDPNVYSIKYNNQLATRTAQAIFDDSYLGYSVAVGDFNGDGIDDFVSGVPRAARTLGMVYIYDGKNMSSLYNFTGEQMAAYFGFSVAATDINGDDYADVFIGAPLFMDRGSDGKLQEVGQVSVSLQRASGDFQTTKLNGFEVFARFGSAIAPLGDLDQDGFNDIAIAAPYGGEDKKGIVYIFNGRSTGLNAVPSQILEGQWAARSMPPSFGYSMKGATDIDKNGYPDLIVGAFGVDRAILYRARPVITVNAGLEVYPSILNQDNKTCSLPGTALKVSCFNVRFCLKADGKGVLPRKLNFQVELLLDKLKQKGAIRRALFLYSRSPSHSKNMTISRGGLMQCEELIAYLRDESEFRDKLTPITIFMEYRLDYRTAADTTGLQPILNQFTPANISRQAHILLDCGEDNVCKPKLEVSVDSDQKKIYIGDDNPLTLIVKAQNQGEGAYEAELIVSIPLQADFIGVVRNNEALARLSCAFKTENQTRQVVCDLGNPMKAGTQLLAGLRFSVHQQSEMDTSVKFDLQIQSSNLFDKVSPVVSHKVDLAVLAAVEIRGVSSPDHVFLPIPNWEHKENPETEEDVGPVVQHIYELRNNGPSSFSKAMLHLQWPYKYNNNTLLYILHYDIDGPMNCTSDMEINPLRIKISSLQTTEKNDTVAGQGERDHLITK
T1 sequence (P06756 891-1048 partner limits assumed): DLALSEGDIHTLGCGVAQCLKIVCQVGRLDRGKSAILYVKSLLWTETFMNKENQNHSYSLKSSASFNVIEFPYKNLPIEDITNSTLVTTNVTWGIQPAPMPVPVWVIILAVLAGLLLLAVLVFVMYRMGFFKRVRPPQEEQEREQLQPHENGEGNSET
T1 sequence (P05106 27-788): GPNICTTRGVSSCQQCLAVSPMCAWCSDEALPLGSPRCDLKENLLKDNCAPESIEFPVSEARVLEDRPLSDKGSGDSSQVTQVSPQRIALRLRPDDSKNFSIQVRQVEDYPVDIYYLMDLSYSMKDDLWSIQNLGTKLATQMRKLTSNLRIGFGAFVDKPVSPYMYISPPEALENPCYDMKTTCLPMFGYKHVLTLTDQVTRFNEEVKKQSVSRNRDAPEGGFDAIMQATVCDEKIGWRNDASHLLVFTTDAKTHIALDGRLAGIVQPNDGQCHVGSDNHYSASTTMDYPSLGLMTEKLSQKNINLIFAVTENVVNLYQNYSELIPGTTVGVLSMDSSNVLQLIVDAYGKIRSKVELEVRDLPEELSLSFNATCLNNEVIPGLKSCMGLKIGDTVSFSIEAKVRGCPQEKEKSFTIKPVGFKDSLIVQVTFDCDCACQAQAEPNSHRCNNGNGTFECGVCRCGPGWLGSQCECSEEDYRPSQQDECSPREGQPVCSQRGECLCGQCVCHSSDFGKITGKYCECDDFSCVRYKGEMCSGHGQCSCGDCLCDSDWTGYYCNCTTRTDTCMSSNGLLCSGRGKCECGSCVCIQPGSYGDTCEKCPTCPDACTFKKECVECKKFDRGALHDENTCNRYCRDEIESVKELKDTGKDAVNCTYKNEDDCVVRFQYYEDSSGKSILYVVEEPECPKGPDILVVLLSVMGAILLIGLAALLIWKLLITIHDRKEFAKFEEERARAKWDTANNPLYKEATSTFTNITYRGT

koff (CA/antigen dissociation rate constant) (αvβ3 [1]): 0.0008 s⁻¹
kon (CA/antigen association rate constant) (αvβ3 [1]): 10^5 M^−1s^−1
Kd (αvβ3 [1]; read-out: KD=koff/kon): 8 nM
ke,B (internalization rate constant of the CA/antigen bound complex) (αvβ3 [2]): 1.48e-05 s⁻¹
kresid (rate of release of CA or CA signal from the intracellular compartment) (αvβ3 [2]): 1.6e-05 s⁻¹
A (fraction of fast phase of plasma clearance) [3]: 0.82
B (fraction of slow phase of plasma clearance) [3]: 0.18
α (fast plasma clearance rate constant) [3]: 0.0026 s⁻¹
β (slow plasma clearance rate constant) [3]: 0.00014 s⁻¹
Substance: ^18F-galacto-RGD [^18F-galacto RGD]
